Test systems include CAKI-1; EKVX; HCC 2998; HCT-15; IGROV-1; KM12; NCI-H226; NCI-H23; OVCAR-3; OVCAR-4; SF-295; SK-MEL-28; SN12C; SW-620; U-251; UO-31; Malme-3M; OVCAR-5.
Holding throughout (test): inhibition of tumour cell growth, NCI panel, 48 h

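Protocol summary: plate cells (96-well), add compound at 5 concentrations, incubate 48 h, interpolate endpoints linearly. GI50: concentration for 50% inhibition of growth.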 Activity calls are given as the source filed them. Cut-off read from the data, not from the text of the source: active = GI50 up to about 1.1 µM and inactive = higher.

Regarding `Cc1c(C)n(COCCO)c2ncnc(N)c12`, the GI50 was > 100 µM (inactive) with CAKI-1; > 100 µM (inactive) with EKVX; > 100 µM (inactive) in the assay with HCC 2998; greater than 100 µM with HCT-15; > 100 µM (inactive) in the assay on IGROV-1; > 100 µM (inactive) in the assay with KM12. Moreover, the GI50 in the assay with NCI-H226, with NCI-H23, with OVCAR-3, in the assay with OVCAR-4, with SF-295 and in the assay with SK-MEL-28 was > 100 µM (inactive) throughout. Besides, the GI50 in the assay on SN12C, with SW-620, with U-251 and with UO-31 was > 100 µM (inactive) each time.

On to `O=C1C=CC(=O)c2c1ccc1c3ccccc3n(-c3ccccn3)c21`, for which the GI50 in the assay with EKVX was 13.8 µM (inactive); in the assay on HCC 2998, > 100 µM (inactive); with HCT-15, 19.1 µM; with KM12, > 100 µM (inactive); with Malme-3M, 17.8 µM (inactive); in the assay with NCI-H226, 13.2 µM (inactive). Also, the GI50 in the assay on NCI-H23 was 36.6 µM (inactive); with OVCAR-3 it was 24.7 µM (inactive); in the assay on OVCAR-4, 15.5 µM (inactive); in the assay with OVCAR-5, > 100 µM (inactive); in the assay on SF-295, > 100 µM (inactive); in the assay with SK-MEL-28 it was > 100 µM (inactive). Moreover, the GI50 was 55.1 µM (inactive) with SN12C, > 100 µM (inactive) in the assay with U-251 and 19.1 µM (inactive) in the assay with UO-31.

With `C[C@]12Cc3conc3C(O)=C1CC[C@@H]1C2CC[C@@]2(C)C1CC[C@]2(C)O` (some centres not stated), the GI50 with EKVX was 21.5 µM (inactive); in the assay on HCC 2998 it was 21.1 µM (inactive); in the assay with HCT-15, 10.7 µM; in the assay with IGROV-1, 19 µM (inactive); with KM12, 13.7 µM (inactive); in the assay with Malme-3M, 18.5 µM (inactive). Besides, the GI50 in the assay with NCI-H226 is 14.8 µM (inactive); with NCI-H23, 19.5 µM (inactive); in the assay with OVCAR-3 it was 18.4 µM (inactive); in the assay on OVCAR-4, 17.2 µM (inactive); in the assay on OVCAR-5 it was 29.2 µM (inactive); with SF-295, 19.1 µM (inactive). For the same compound, the GI50 with SK-MEL-28 was 19.9 µM (inactive); in the assay on SN12C, 33 µM (inactive); in the assay on SW-620, 21.1 µM (inactive); in the assay with U-251, 19.7 µM (inactive); in the assay on UO-31, 16 µM (inactive).

In the case of `COc1ccc2c(CCNC(=O)/C=C/c3ccccc3)c(C(C)=O)[nH]c2c1[N+](=O)[O-]`, the GI50 in the assay on CAKI-1 was 5.28 µM (inactive); with HCC 2998, 20 µM (inactive); in the assay on HCT-15 it was 6.89 µM; in the assay on IGROV-1, 18.3 µM (inactive); with KM12, 7.73 µM (inactive); with NCI-H226, 20.9 µM (inactive). The GI50 was 3.78 µM (inactive) with NCI-H23; 10.1 µM (inactive) with OVCAR-3; 21.8 µM (inactive) in the assay with OVCAR-4; > 10 µM (inactive) with OVCAR-5; 3.87 µM (inactive) in the assay with SF-295; 14.5 µM (inactive) with SK-MEL-28. Also, the GI50 in the assay with SN12C was 42.4 µM (inactive); in the assay on SW-620 it was 5.38 µM (inactive); with U-251 it was 34.2 µM (inactive); with UO-31, 31.3 µM (inactive).

As to `C[C@]12CCC3[C@@H](CC[C@@H]4c5nonc5CC[C@]34C)C1CCC2=O` (some centres not stated), the GI50 in the assay with CAKI-1 is 22.9 µM (inactive); with EKVX, 19.9 µM (inactive); in the assay on HCT-15, 29.8 µM; in the assay on IGROV-1, 40.6 µM (inactive); with KM12, 20.7 µM (inactive); with Malme-3M, 23.3 µM (inactive). Besides, the GI50 with NCI-H226 was 20 µM (inactive); in the assay on NCI-H23, 24.5 µM (inactive); in the assay with OVCAR-3 it was 17.1 µM (inactive); with OVCAR-4, 23.8 µM (inactive); in the assay on OVCAR-5, 29.3 µM (inactive); with SF-295 it was 24.1 µM (inactive). Further, the GI50 was 24.7 µM (inactive) in the assay with SK-MEL-28; 21.5 µM (inactive) with SN12C; 37.2 µM (inactive) in the assay with SW-620; 16 µM (inactive) in the assay with U-251; 11.3 µM (inactive) in the assay with UO-31.

Consider `C=CC1=CSNN1`, for which the GI50 in the assay on CAKI-1 is > 100 µM (inactive); with EKVX, > 100 µM (inactive); in the assay on HCC 2998 it was > 100 µM (inactive); in the assay with HCT-15 it was greater than 100 µM; in the assay on IGROV-1, > 100 µM (inactive); in the assay on KM12 it was > 100 µM (inactive). For the same compound, the GI50 with Malme-3M, in the assay on NCI-H23, in the assay on OVCAR-3, in the assay on OVCAR-4, in the assay with OVCAR-5 and with SF-295 was > 100 µM (inactive) each time. The GI50 in the assay on SK-MEL-28, in the assay with SN12C, in the assay with SW-620, in the assay on U-251 and in the assay on UO-31 was > 100 µM (inactive) in each case.

For the compound `Nc1ccn(CCCC(c2ccccc2)P(=O)(O)O)c(=O)n1` (configuration not stated), the GI50 with CAKI-1 is > 100 µM (inactive); with HCC 2998, > 100 µM (inactive); with HCT-15, greater than 100 µM; in the assay on IGROV-1 it was > 100 µM (inactive); in the assay on KM12, > 100 µM (inactive); in the assay on Malme-3M, > 100 µM (inactive). In addition, the GI50 in the assay on NCI-H23, with OVCAR-3, in the assay on OVCAR-5, in the assay with SF-295, in the assay on SK-MEL-28 and with SN12C was > 100 µM (inactive) each time. For the same compound, the GI50 in the assay with SW-620, in the assay with U-251 and in the assay with UO-31 was > 100 µM (inactive) throughout.

Regarding `O=C(O)CN(c1ccc(F)cc1)S(=O)(=O)c1ccccc1`, the GI50 with CAKI-1 is > 100 µM (inactive); in the assay with EKVX, > 100 µM (inactive); in the assay with HCT-15, greater than 100 µM; with IGROV-1 it was > 100 µM (inactive); with KM12 it was > 100 µM (inactive); in the assay on Malme-3M, > 100 µM (inactive). Also, the GI50 in the assay with NCI-H226, in the assay on NCI-H23, in the assay with OVCAR-3, in the assay with OVCAR-4, in the assay with OVCAR-5 and with SF-295 was > 100 µM (inactive) in each case. Besides, the GI50 in the assay on SK-MEL-28, with SN12C, in the assay on SW-620, in the assay on U-251 and with UO-31 was > 100 µM (inactive) each time.

On to `O=C1c2ccccc2C(=O)c2c(O)c(O)cc(O)c21` [PURPURIN], for which the GI50 in the assay with CAKI-1 is 44 µM (inactive); in the assay with EKVX it was 50.9 µM (inactive); in the assay on HCC 2998, 32.7 µM (inactive); with HCT-15 it was 36.5 µM; in the assay with IGROV-1, 31.6 µM (inactive); in the assay with KM12 it was 41.5 µM (inactive). Moreover, the GI50 in the assay with Malme-3M was 32.7 µM (inactive); in the assay with NCI-H23, 29.9 µM (inactive); in the assay on OVCAR-3 it was 22.4 µM (inactive); in the assay with OVCAR-4 it was 41 µM (inactive); in the assay with OVCAR-5, 80.7 µM (inactive); in the assay on SF-295, 51.6 µM (inactive). Also, the GI50 with SK-MEL-28 is 38.6 µM (inactive); with SN12C it was 34.7 µM (inactive); in the assay with SW-620 it was 40.1 µM (inactive); in the assay with U-251, 35.6 µM (inactive); with UO-31, 19 µM (inactive).

The values above are taken from ChEMBL document CHEMBL1201862, “PubChem BioAssay data set” (2004).
